Data set [1] in a line: Liver microsome metabolic stability test (human). It counts as in vitro ADME. Particulars: for microsomal CLint: liver microsomes, read-out: CLint (μL/min/mg) Human. On the procedure:
(§1) 1: To the sample wells of T0, T5, T10, T20, T30, T60 and NCF60, 10 μL of the test or reference working solution and 80 μL of microsome working solution (hepatic microsome with a protein concentration of 0.5 mg/mL) were added, and to Blank60 well, only the microsome working solution was added. Then samples of the Blank60, T5, T10, T20, T30 and T60 other than TO and NCF60 were placed in a 37° C. water bath and pre-incubated for about 10 min.
(§2) 2: To the TO sample well, 300 μL of stop solution (containing 200 ng/mL tolbutamide and 200 ng/mL labetalol in acetonitrile solution) was added first, followed by 10 μL of NADPH regeneration system working solution.
(§3) 3: After the pre-incubation of Blank60, T5, T10, T20, T30 and T60 incubation plates, 10 μL of NADPH regeneration system working solution was added to each sample well to start the reaction, and 10 μL of 100 mM potassium phosphate buffer was added to the NCF60 sample well.
(§4) 4: After incubation for an appropriate time (such as 5, 10, 20, 30 and 60 min), to each test sample well and control well of the Blank60, T5, T10, T20, T30, T60 and NCF60 plates, 300 μL of stop solution was added to terminate the reaction.
(§5) 5: All sample plates were shaken to mix well and centrifuged at 4000 rpm for 20 min, and 100 μL of the supernatant of the test sample or control sample was taken and diluted with 300 μL of pure water for LC-MS/MS analysis.
(§6) 6: Data analysis: T1/2 and CLint(mic) (μL/min/mg) values were calculated according to the first-order elimination kinetics. The first-order elimination kinetics equation was: […]
Background: Liver microsomes are vesicles of endoplasmic reticulum, rich in cytochrome P450 enzymes.

The nature of data set [2]: Liver microsome metabolic stability test (rat). To be noted: for microsomal CLint: liver microsomes, read-out: CLint (μL/min/mg) Rat. It counts as in vitro ADME. On the procedure:
as §1, §2, §3, §4, §5, §6

Data set [3] in a line: Pharmacokinetic test, oral, SD rats. The data set is classed as in vivo. Particulars: oral 10 mg/kg. On the procedure: Each test compound was administered orally (10 mg/kg, 3 rats in each group) to SD rats for pharmacokinetic study. […] Animals were fasted overnight before oral administration, and fed again after 4 h of administration. […] At each collection time point, 3 whole blood samples were collected at a the collection volume of about 0.2-0.3 mL. […] The collected plasma was stored at −20° C. before analysis. 20 μL of plasma sample was added into a 1.6 mL 96-well deep-well plate, added with 200 μL of working internal standard solution (the same volume of vehicle was added to the blank instead of internal standard), vortexed for 1 min, and centrifuged at 5800 rpm for 10 min. 100 μL of the supernatant was added to a 96-well injection plate for LC-MS/MS analysis.

The test system of another data set is TMD8 cell proliferation. Briefly: In vitro cell proliferation inhibitory activity test (CTG), TMD8. It counts as cell-based. Particulars: Homo sapiens, TMD8, 72 h, TMD8 cells. On the procedure:
(§7) Test Example 4: In Vitro Cell Proliferation Inhibitory Activity Test
(§8) Cells were cultured in 1640 medium, added with 10% inactivated FBS and 1% double antibiotics, and cultured at 37° C. and 5% CO2.
(§9) (1) Cells were routinely cultured until the cell density was 80%-90%, and the cells were harvested when their number reached the requirement.
(§10) (2) Cells were resuspended with corresponding culture medium, counted, and prepared into cell suspension at appropriate density.
(§11) (3) The cell suspension was added to a 96-well plate, 100 μL per well.
(§12) (4) Cells were cultured overnight in a 37° C., 5% CO2 incubator.
(§13) (1) The compounds to be tested were diluted with DMSO to make a stock solution with a final concentration of 20 mM for later use.
(§14) (2) The stock solution was diluted 10 times from 20 mM to 2 mM with DMSO, and then diluted 3 times from 2 mM to 9 concentrations.
(§15) (3) The blank control wells were cells plus 0.5% DMSO, as high-reading control wells.
(§16) (4) Wells with no cells and only medium were used as low-reading control wells.
(§17) 4: Cell treatment with compound
(§18) (1) 24 h after the cells were plated, the compounds acted alone, and 99 μL of growth medium was added to each well, followed by 1 μL of the compound prepared in step 3. The plate was shaken gently to mix uniformly, and then placed in a 37° C., 5% CO2 incubator.
(§19) (2) The cell plate was placed in an incubator for 72 h.
(§20) 5: Detection by CTG method
(§21) (1) The cell plate to be tested was placed at room temperature for 30 min, and 100 μL of medium was discarded from each well.
(§22) (2) 100 μL of CTG reagent (CelltiterGlo kit) was added to each well, placed on a fast shaker for 2 min, and stood at room temperature in the dark for 30 min.
(§23) (3) The chemiluminescent signal value was read with the Envision instrument.
(§24) IC50 was calculated by using GraphPad Prism 8 software. The IC50 (half inhibitory concentration) of the compound was derived using the following nonlinear fitting formula, and the results are shown in the following table:
(§25) Y=Bottom+(Top−Bottom)/(1+10^((Log IC50−X)×HillSlope))
(§26) X: log value of compound concentration, Y: inhibition rate (% inhibition)
(§27) Inhibition rate (% inhibition)=(reading of high-reading control well-reading of compound well)/(reading of high-reading control well-reading of low-reading control well)×100

A further data set has as its system BT474 cell proliferation. The data set can be described thus: In vitro cell proliferation inhibitory activity test (CTG), BT474. It counts as cell-based. To be noted: Homo sapiens, BT-474, BT474 cell proliferation. On the procedure: as §7, §8, §9, §10, §11, §12, §13, §14, §15, §16, §17, §18, §19, §20, §21, §22, §23, §24, §25, §26, §27

One may read the IC50 as the point on the concentration scale where inhibition reaches its midpoint. Higher therefore signals lower potency.

In the case of `Nc1nccn2c([C@@H]3CC[C@H](CO)OC3)nc(-c3ccc(C(=O)Nc4ccccn4)cc3)c12` (single isomer, unassigned) [Example 2-A-P1], in data set [1], the “CLint (μL/min/mg) Human” value is less than 9.6 µL/min/mg and the “% Remaining (60 min) Human” value is 122.5%. Further, in data set [2], the “CLint (μL/min/mg) Rat” value was less than 9.6 µL/min/mg and the “% Remaining (60 min) Rat” value is 95.5%. Further, in data set [3], the “AUC(0-∞)” value is 77004 ng·h/mL.
With `COc1ccccc1C(=O)NCc1ccc(-c2nn(C3CCC(CO)OC3)c3ncnc(N)c23)cc1` (single isomer, unassigned) [Example 60-B], the “Cl” value in data set [3] was 188.82 mL/min/kg.
As for `Nc1nccn2c(C3CCC(CO)OC3)nc(-c3ccc(C(=O)Nc4cc(C(F)(F)F)ccn4)cc3)c12` (single isomer, unassigned) [Example 109-P1], the IC50 with TMD8 cell proliferation stood at 0.0122 µM.
With `Nc1nccn2c(C3CC[C@@H](CO)OC3)nc(-c3ccc(C(=O)Nc4ccccn4)cc3F)c12` (some centres unmarked) [Example 1-B], in data set [1], the “CLint (μL/min/mg) Human” value was less than 9.6 µL/min/mg and the “% Remaining (60 min) Human” value was found to be 99.9%. Further, in data set [2], the “CLint (μL/min/mg) Rat” value was 18.2 µL/min/mg and the “% Remaining (60 min) Rat” value was found to be 63.7%.
Regarding `COc1cccc(Oc2ccc(-c3nc(C4CCC(CO)OC4)n4ccnc(N)c34)cc2)c1F` (centres unmarked) [Example 5], the figures for the microsomal CLint in data set [1] and in data set [2] were 38.8 µL/min/mg and 122 µL/min/mg, respectively.
For `Nc1nccn2c(C3CCC(CO)OC3)nc(-c3ccc(Oc4cccc(F)c4F)cc3)c12` (centres unmarked) [Example 8], in that order: 33.9 µL/min/mg and 66.5 µL/min/mg.
As for `Nc1nccn2c(C3CCC(CO)OC3)nc(-c3ccc(Oc4cccc(Cl)c4F)cc3)c12` (centres unmarked) [Example 9], in data set [1], the “% Remaining (60 min) Human” value turned out to be 24.5% and the microsomal CLint came out at 48.4 µL/min/mg. In addition, in data set [2], the “% Remaining (60 min) Rat” value was 3.2% and the microsomal CLint was determined as 114 µL/min/mg.
For `COc1cccc(Oc2ccc(-c3nc(C4CCC(CO)OC4)n4c(Cl)cnc(N)c34)cc2)c1F` (centres unmarked) [Example 12], in that order: 2.6%, 124 µL/min/mg, 3.0% and 118 µL/min/mg.
On to `Nc1nccn2c(C3CCC(CO)OC3)nc(-c3ccc(Oc4ccccc4)cc3)c12` (centres unmarked) [Example 16], for which, in data set [1], the “% Remaining (60 min) Human” value turned out to be 31.8% and the microsomal CLint came out at 36.9 µL/min/mg. For the same molecule, in data set [2], the “% Remaining (60 min) Rat” value is 14.6% and the microsomal CLint was 63.9 µL/min/mg.
On to `Nc1nccn2c(C3CCC(CO)OC3)nc(-c3ccc(Oc4cccc(C(F)(F)F)c4F)cc3)c12` (centres unmarked) [Example 19], for which the microsomal CLint in data set [1] was determined as 47.1 µL/min/mg; in data set [2] it was 83.1 µL/min/mg.
For `Cc1cccc(Oc2ccc(-c3nc(C4CCC(CO)OC4)n4ccnc(N)c34)cc2)c1F` (centres unmarked) [Example 24], in that order: 74.9 µL/min/mg and 255 µL/min/mg.
Regarding `Nc1nccn2c(C3CCC(CO)OC3)nc(-c3ccc(C(=O)c4ccccc4)cc3)c12` (centres unmarked) [Example 26], the microsomal CLint in data set [1] turned out to be 31.1 µL/min/mg; in data set [2], 46.1 µL/min/mg.
As for `Nc1nccn2c(C34CCC(CO)(CC3)OC4)nc(-c3ccc(C(=O)Nc4ccccn4)cc3)c12` [Example 34], the microsomal CLint in data set [1] and in data set [2] was less than 9.6 µL/min/mg in each case. Further, in the data set with TMD8 cell proliferation, the midpoint of inhibition, the IC50, lay at 0.0569 µM.
Consider `Nc1nccn2c(C3CCC(CO)OC3)nc(-c3ccc(Oc4c(F)cccc4F)cc3)c12` (centres unmarked) [Example 64], for which the microsomal CLint in data set [1] worked out at 36.8 µL/min/mg; in data set [2] it was 81.6 µL/min/mg.
For `Cc1ccnc(NC(=O)c2ccc(-c3nc(C4CCC(CO)OC4)n4ccnc(N)c34)cc2)c1` (centres unmarked) [Example 70], in that order: 13.2 µL/min/mg and 30.3 µL/min/mg.
Take `COc1cccc(Oc2ccc(-c3nc(C4CCC(CO)OC4)n4ccnc(N)c34)cc2)c1` (centres unmarked) [Example 101]: the microsomal CLint in data set [1] was less than 9.6 µL/min/mg; in data set [2], 29.8 µL/min/mg.
`N#Cc1ccnc(NC(=O)c2ccc(-c3nc(C4CCC(CO)OC4)n4ccnc(N)c34)cc2)c1` (centres unmarked) [Example 103]: the microsomal CLint in data set [1] and in data set [2] was less than 9.6 µL/min/mg each time. The “Cl” value in data set [3] turned out to be 16.67 mL/min/kg. This molecule came in with an IC50 in the data set on TMD8 cell proliferation of 0.0251 µM.
In the case of `Nc1nccn2c(C3CCC(CO)OC3)nc(-c3ccc(Cc4ccccc4)cc3)c12` (centres unmarked) [Example 106], the microsomal CLint in data set [1] came out at 13.1 µL/min/mg; in data set [2], 29.5 µL/min/mg. The same molecule had an IC50 with TMD8 cell proliferation of 0.0495 µM.
In the case of `Nc1nccn2c(C3CCC(CO)OC3)nc(-c3ccc(C(F)(F)c4ccccc4)cc3)c12` (centres unmarked) [Example 111], the values for the microsomal CLint in data set [1] and in data set [2] were 10.9 µL/min/mg and 26.1 µL/min/mg, respectively.
`Nc1nccn2c(C34CCC(CO)(CC3)OC4)nc(-c3ccc(C(F)(F)c4ccccc4)cc3F)c12` [Example 114]: in the data set with BT474 cell proliferation, the IC50 turned out to be 0.173 µM.
Consider `COc1cccc(Oc2ccc(-c3nc(C45CCC(CO)(CC4)OC5)n4ccnc(N)c34)c(F)c2)c1C#N` [Example 115], for which the IC50 in the data set on TMD8 cell proliferation worked out at 0.0061 µM.
The molecule `COc1cccc(C(F)(F)c2ccc(-c3nc(C45CCC(CO)(CC4)OC5)n4ccnc(N)c34)cc2)c1F` [Example 129] came in with an IC50 in the data set with BT474 cell proliferation of 0.208 µM. In other words, the sub-micromolar range.
Same read-out and setting: the same measure for `Cc1cccc(C(F)(F)c2ccc(-c3nc(C45CCC(CO)(CC4)OC5)n4ccnc(N)c34)cc2)c1F` [Example 139]: 0.209 µM.
Still for that read-out and setting: the same measure for `Nc1nccn2c(C34CCC(CO)(CC3)OC4)nc(-c3ccc(C(F)(F)c4ccc(F)c(Cl)c4)cc3)c12` [Example 140]: 0.504 µM.
Still for that read-out and setting: the same measure for `Nc1nccn2c(C34CCC(CO)(CC3)OC4)nc(-c3ccc(C(F)(F)c4cccc(C5CC5)c4)cc3)c12` [Example 143]: 0.467 µM.
The molecule `Nc1nccn2c(C34CCC(CO)(CC3)OC4)nc(-c3ccc(C(F)(F)c4c(F)c(F)cc(F)c4F)cc3)c12` [Example 144] yielded an IC50 in the data set with BT474 cell proliferation of 0.191 µM.
Still for that read-out and setting: the same measure for `Cc1c(F)cccc1C(F)(F)c1ccc(-c2nc(C34CCC(CO)(CC3)OC4)n3ccnc(N)c23)cc1` [Example 147]: 0.377 µM; for `Nc1nccn2c(C34CCC(CO)(CC3)OC4)nc(-c3ccc(C(F)(F)c4c(F)cccc4F)cc3)c12` [Example 153]: 0.121 µM.
On the same count and under the same terms, the same measure for `Nc1nccn2c(C34CCC(CO)(CC3)OC4)nc(-c3ccc(C(F)(F)c4ccccc4F)c(F)c3)c12` [Example 156]: 0.269 µM; for `Nc1nccn2c(C34CCC(CO)(CC3)OC4)nc(-c3ccc(C(O)(c4ccccc4)C(F)(F)F)cc3)c12` (centres unmarked) [Example 157]: 2.27 µM; for `Nc1nccn2c(C34CCC(CO)(CC3)OC4)nc(-c3ccc(C(F)(c4ccccc4)C(F)(F)F)cc3)c12` (centres unmarked) [Example 158]: 4.95 µM.
On the same count and under the same terms, the same measure for `Nc1nccn2c(C34CCC(CO)(CC3)OC4)nc(-c3ccc(C(c4ccccc4)(C(F)(F)F)C(F)(F)F)cc3)c12` [Example 159]: greater than 1 µM; for `CS(=O)(=O)CCNCc1ccc(-c2ccc3ncnc(Nc4ccc(OCc5cccc(F)c5)c(Cl)c4)c3c2)o1` [Lapatinib]: 0.0552 µM.

(Values after patent US20230257383A1, “COMPOUND SERVING AS BTK INHIBITOR, PREPARATION METHOD THEREFOR, AND USE THEREOF” (CHENGDU HYPERWAY PHARMACEUTICALS CO., LTD., priority 2020, published 2023).)
